# Measured values from patent US20100184037A1, “DEATH ASSOCIATED PROTEIN KINASE 1 (DAPK1) AND USES THEREOF FOR THE TREATMENT OF CHRONIC LYMPOCYTIC LEUKEMIA” (THE OHIO STATE UNIVERSITY RESEARCH FOUNDATION, priority 2007, published 2010).
# Assays:
# [1] = tested on: DAPK1 promoter; assay: Bisulfite sequencing of the BS1 region of Decitabine-treated Raji cells; assay type: cell-based; settings: Decitabine 0.5 μM, untreated 55%
# Description: FIG. 2F—Bisulfite treatment for untreated and 6 and 12 days 5-aza-2′-deoxycytidine treated (0.5 μM) Raji cells. Bisulfite treated DNA was amplified for the BS1 region (c.1-1509 to c.1-1262) comprising 30 CpGs and cloned. Sequencing was done for 7-10 clones for each sample. Each row represents a clone. The open circles indicate unmethylated CpG, and closed circles indicate methylated CpG. The overall methylation frequency is given in (%) on the right.
# One microgram of genomic DNA was treated with sodium […] according to published protocols (Herman et al., 1996). Regions BS1 and BS2 were amplified (primers are available upon request). The PCR product was purified using the Qiagen Gel Extraction kit (Qiagen, Chatsworth, Calif.) according to the manufacturer's protocol and subcloned using the TOPO TA-Cloning kit (Invitrogen) followed by sequencing of 8-10 clones for each sample using ABI big dye technology.
# [2] = tested on: DAPK1; assay: Decitabine treatment of Raji cells, RT-PCR for DAPK1; assay type: cell-based; settings: for 3, 6, 9, and 12 days
# Source text: Next we treated Raji cells with 0.51.LM Decitabine for 3, 6, 9, and 12 days.
# Blood was obtained from patients with B-cell CLL through the CLL Research Consortium (CRC), from the Ohio State University and Uppsala University tissue banks. CLL patients from OSU and CRC consortium and healthy volunteers provided written informed consent using Institutional Review Board-approved protocols. Written consent for Uppsala samples was provided according to the declaration of Helsinki. Seven CD 19+ selected CLL samples were obtained by positive selection using magnetic beads conjugated to anti-CD19 (MACS, Miltenyi Biotec, Auburn Calif.). The resulting cells are at least 95% CD19 positive. All patients had immunophenotypically defined CLL as outlined by the modified 96 NCI criteria (Cheson et al., 1996) and for Uppsala samples, according to WHO classification. The CLL cell line WaC3CD5, described previously (Wendel-Hansen et al., 1994), Jurkat, Raji and lymphoblastoid cell lines were incubated (37° C. and 5% C02) in RPMI 1640 supplemented with 10% FBS (HyClone Laboratories, Logan, Utah), 2 mM L-glutamine, 100 U/ml penicillin, and 100 μg/ml streptomycin (all from Invitrogen, Carlsbad Calif.). […]
# Semi-quantitative RT-PCR was performed as described previously (Liu et al., 2006). […] The expression data was analyzed by comparative Ct method. […]
smiles,measurement,setting,value
"Nc1ncn([C@H]2C[C@H](O)[C@@H](CO)O2)c(=O)n1 [Decitabine, 5-aza-2′-deoxycytidine]","DNA methylation of CpG dinucleotides, BS1 region",[1]; day 6 (70/240),29%
same,"DNA methylation of CpG dinucleotides, BS1 region",[1]; day 12 (68/270),25%
same,DAPK1 expression (RT-PCR),[2],gradual up-regulation of DAPK1 expression
